Columns and labels:
Type in all cases: cell-based
pAkt (S473) = assay: phospho-Akt (S473) in differentiated U937 cells stimulated with cigarette smoke extract (SDS-PAGE); settings: Homo sapiens, U-937; compound alone; differentiated U937, CSE; read-out: IC50 of inhibition of Akt phosphorylation
Procedure: U-937 monocytes were differentiated into macrophages by incubation with 50 ng/ml PMA for 48 h. Cells were trypsinized and plated at a density of 100,000 per well and stimulated with CSE for 2 h in starvation media. Lysates were made using RIPA buffer and run by SDS-PAGE, transferred to PVDF membrane and probed with phospho-Akt (S473) antibody (Cell signaling, USA) followed by anti-rabbit IgG (Cell signaling, USA). Band intensity was calculated using ImageJ 1.42 (NIH, USA).

TNFα = assay: LPS induced TNFα in PBMC; settings: 10 nM alone, LPS
Procedure: PBMC (peripheral blood mononuclear cells) from whole blood were isolated by density gradient using Histopaque and incubated with the desired concentration of inhibitor for 15 minutes. LPS (1 μg/ml) was added and then incubated for 24 hours. The supernatant was collected and TNFα estimated using an eBioscience TNFα ELISA kit.
PBMC from whole blood were isolated by density gradient using Histopaque and incubated with the desired concentration of inhibitor for 15 minutes. LPS (1 μg/m1) was added and then incubated for 24 hours. The supernatant was collected and TNFα estimated using an eBioscience TNFα ELISA kit.

A549 cells = assay: Cell cycle analysis / CSE induced apoptosis in A549 cells; settings: compound alone, CSE 72 h
Procedure: A549 cells were plated in 6-well plates at a density of 100,000 cells per well and stimulated with CSE for 72 h. After incubation, cells were fixed in 70% ethanol and stored at 4° C. till analysis. Cells were stained with Guava Cell Cycle reagent according to the manufacturer's instructions. Cell cycle data were obtained using the Guava Personal Cell Analysis System (Millipore, USA).

IC50 (pAkt (S473)): 1930 nM
SMILES: O=C(Nc1c(Cl)cncc1Cl)c1ccc(OC(F)F)c(OCC2CC2)c1 [Compound A, roflumilast, reference compound]
decrease of TNFα secretion (TNFα): 25%
inhibition of apoptosis (A549 cells): dose-dependent inhibition of apoptosis
